Reference: patent publication US8536187B2 (Gilead Sciences, Inc., priority 2008, dated 2013)

How the values were obtained:
[1] = tested on: HCV replicon in human hepatoma Huh-7 cell line; experiment: Anti-HCV replicon assay, EC50 (luciferase luminescence); type: cell-based; settings: Hepatitis C virus, Huh-7, 72 h
How it was run: (§1)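 Cytotoxicity (CC50) read by CellTiter-Glo luminescence after 10 min, and antiviral EC50 by luciferase signal after 30 min lysis with substrate, both at room temperature. Preceding step: 3-day exposure of 6000 Huh-7 HCV replicon cells per well to compound dilution series at 37° C, 5% CO2, in 0.5% DMSO.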

[2] = CC50 assay (CellTiter-Glo) in Huh-7 HCV replicon cells; type: cell-based; settings: human
How it was run: as §1

SMILES | EC50 [1] | CC50 at 3 days ([2]; Table 2, 3 days incubation) | CC50 at 3 days ([2]; Table 1, 3 days incubation)
c1ncn(-c2ccc(CNc3nc(OC4CC4)c4nc(-c5ccc(OC6CC6)nc5)ccc4n3)cc2)n1 [Example 248, N-(4-(1H-1,2,4-triazol-1-yl)benzyl)-4-cyclopropoxy-6-(6-cyclopropoxypyridin-3-yl)pyrido[3,2-d]pyrimidin-2-amine] | < 100 nM | 1000 to 10000 nM | –
CC(C)Oc1nc(NCc2ccc(-n3cncn3)cc2)nc2ccc(-c3cccc(S(C)(=O)=O)c3)nc12 [Example 198, N-(4-(1H-1,2,4-triazol-1-yl)benzyl)-4-isopropoxy-6-(3-(methylsulfonyl)phenyl)pyrido [3,2-d]pyrimidin-2-amine] | < 100 nM | > 10000 nM | –
CC#Cc1ccc2nc(N[C@H](C)c3ccc(S(N)(=O)=O)cc3)nc(OC3CC3)c2n1 [Example 309, (R)-4-(1-(4-cyclopropoxy-6-(prop-1-ynyl)pyrido[3,2-d]pyrimidin-2-ylamino)ethyl) benzenesulfonamide] | < 100 nM | > 10000 nM | –
COCC#Cc1ccc2nc(N[C@H](C)c3ccc(S(N)(=O)=O)cc3)nc(NCC(F)(F)F)c2n1 [Example 277, (R)-4-(1-(6-(3-methoxyprop-1-ynyl)-4-(2,2,2-trifluoroethyl-amino)pyrido[3,2-d]pyrimidin-2-ylamino)ethyl)benzene-sulfonamide] | < 100 nM | > 10000 nM | –
C[C@@H](Nc1nc(NCC(F)(F)F)c2nc(-c3cccc(S(C)(=O)=O)c3)ccc2n1)c1ccc(-n2cncn2)cc1 [Example 170, N^2-((R)-1-(4-(1H-1,2,4-triazol 1-yl)phenyl)ethyl)-6-(3-(methylsulfonyl)phenyl)-N^4-(2,2,2-trifluoroethyl)pyrido [3,2-d]pyrimidine-2,4-diamine] | < 100 nM | 1000 to 10000 nM | –
COc1ccc(-c2ccc3nc(NCc4ccc(F)c(F)c4)nc(NCC(F)(F)F)c3n2)cc1S(C)(=O)=O [Example 161, N^2-(3,4-difluorobenzyl)-6-(4-methoxy-3-(methylsulfonyl)phenyl)-N^4-(2,2,2-trifluoroethyl) pyrido[3,2-d]pyrimidine-2,4-diamine] | < 100 nM | > 10000 nM | –
CCOc1ccc(-c2ccc3nc(N[C@H](C)Cn4cncn4)nc(NCC(F)(F)F)c3n2)cn1 [Example 232, N^2-((R)-1-(1H-1,2,4-triazol-1-yl)propan-2-yl)-6-(6-ethoxypyridin-3-yl)-N^4-(2,2,2-trifluoroethyl)pyrido[3,2-d] pyrimidine-2,4-diamine] | < 100 nM | 1000 to 10000 nM | –
COc1ccc(-c2ccc3nc(NC(C)c4cc(F)cc(F)c4)nc(NCC(F)(F)F)c3n2)cc1S(C)(=O)=O (stereo not shown) [Example 180, N^2-(1-(3,5-difluorophenyl)ethyl)-6-(4-methoxy-3-(methylsulfonyl)phenyl)-N^4-(2,2,2-trifluoroethyl)pyrido [3,2-d]pyrimidine-2,4-diamine] | 100 to 250 nM | 1000 to 10000 nM | –
CC(C)(C)Oc1nc(NCc2ccc(-n3cncn3)cc2)nc2ccc(-c3cccc(S(C)(=O)=O)c3)nc12 [Example 197, N-(4-(1H-1,2,4-triazol-1-yl)benzyl)-4-tert-butoxy-6-(3-(methylsulfonyl)phenyl)pyrido [3,2-d]pyrimidin-2-amine] | < 100 nM | > 10000 nM | –
CC(C)Oc1ccc(-c2ccc3nc(N[C@H](C)Cn4cncn4)nc(NCC(F)(F)F)c3n2)cn1 [Example 241, N^2-((R)-1-(1H-1,2,4-triazol-1-yl)propan-2-yl)-6-(6-isopropoxypyridin-3-yl)-N^4-(2,2,2-trifluoroethyl)pyrido [3,2-d]pyrimidine-2,4-diamine] | < 100 nM | > 10000 nM | –
NS(=O)(=O)c1ccc(CNc2nc(NC3(C(F)(F)F)CC3)c3nc(-c4ccc(F)cc4)ccc3n2)cc1 [Example 23, 4-{[6-(4-fluoro-phenyl)-4-(1-trifluoromethyl-cyclopropylamino)-pyrido[3,2-d]pyrimidin-2-ylamino]-methyl}-benzenesulfonamide] | < 100 nM | 1000 to 10000 nM | –
COc1ccc(-c2ccc3nc(NCc4ccc(S(N)(=O)=O)cc4)nc(NC4(C#N)CC4)c3n2)cn1 [Example 132, 4-((4-(1-cyanocyclopropylamino)-6-(6-methoxypyridin-3-yl)pyrido[3,2-d]pyrimidin-2-ylamino)methyl)benzene-sulfonamide] | < 100 nM | > 10000 nM | –
COCC#Cc1ccc2nc(NCc3cc(Cl)cc(S(N)(=O)=O)c3)nc(NC3(C(F)(F)F)CC3)c2n1 [Example 46, 3-chloro-5-((6-(3-methoxyprop-1-ynyl)-4-(1-(trifluoromethyl)cyclopropyl-amino)pyrido[3,2-d]pyrimidin-2-ylamino)methyl)benzene-sulfonamide] | < 100 nM | > 10000 nM | –
CCOc1ccc(-c2ccc3nc(N[C@H](C)c4ccc(S(N)(=O)=O)cc4)nc(OC4(C)CC4)c3n2)cc1S(N)(=O)=O [Example 264, 4-((R)-1-(6-(4-ethoxy-3-(aminosulfonyl)phenyl)-4-(1-methylcyclopropoxy)pyrido [3,2-d]pyrimidin-2-ylamino)ethyl)benzenesulfonamide] | < 100 nM | 1000 to 10000 nM | –
CC[C@@H](Nc1nc(NCC(F)(F)F)c2nc(-c3ccc(F)cc3)ccc2n1)c1ccccc1S(N)(=O)=O [Example 11, (R)-2-{1-[6-(4-Fluoro-phenyl)-4-(2,2,2-trifluoro-ethylamino)-pyrido[3,2-d]pyrimidin-2-ylamino]-propyl}-benzenesulfonamide] | 250 to 2000 nM | – | > 25000 nM
NS(=O)(=O)c1cc(CNc2nc(NC3(C(F)(F)F)CC3)c3nc(-c4ccc(F)cc4)ccc3n2)ccc1Cl [Example 88, 2-chloro-5-((6-(4-fluorophenyl)-4-(1-(trifluoromethyl)cyclopropyl-amino)pyrido[3,2-d]pyrimidin-2-ylamino)methyl)benzene-sulfonamide] | 100 to 250 nM | > 10000 nM | –
Cc1nc(C)n(-c2ccc(CNc3nc(OC4(C)CC4)c4nc(-c5ccc(OC(F)F)c(S(C)(=O)=O)c5)ccc4n3)cc2)n1 [Example 205, N-(4-(3,5-dimethyl-1H-1,2,4-triazol-1-yl)benzyl)-6-(4-(difluoromethoxy)-3-(methylsulfonyl)phenyl)-4-(1-methylcyclopropoxy)pyrido [3,2-d]pyrimidin-2-amine] | < 100 nM | > 10000 nM | –
C[C@H](Nc1nc(NCc2ccc(S(N)(=O)=O)cc2)nc2ccc(C#CC3CC3)nc12)C(F)(F)F [Example 290, (S)-4-((6-(2-cyclopropyl-ethynyl)-4-(1,1,1-trifluoro-propan-2-ylamino)pyrido [3,2-d]pyrimidin-2-ylamino)methyl)benzene-sulfonamide] | < 100 nM | 1000 to 10000 nM | –
CC#Cc1ccc2nc(N[C@H](C)c3ccc(S(N)(=O)=O)cc3)nc(NCC(F)(F)F)c2n1 [Example 298, (R)-4-(1-(6-(prop-1-ynyl)-4-(2,2,2-trifluoroethylamino)pyrido[3,2-d]pyrimidin-2-ylamino)ethyl)benzene-sulfonamide] | < 100 nM | > 10000 nM | –
C[C@H](Cn1cncn1)Nc1nc(NCC(F)(F)F)c2nc(-c3cccc(S(C)(=O)=O)c3)ccc2n1 [Example 168, N^2-((R)-1-(1H-1,2,4-triazol-1-yl)propan-2-yl)-6-(3-(methylsulfonyl)phenyl)-N^4-(2,2,2-trifluoroethyl)pyrido [3,2-d]pyrimidine-2,4-diamine] | 100 to 250 nM | > 10000 nM | –
COc1ccc(-c2ccc3nc(NCc4ccc(S(N)(=O)=O)cc4)nc(NC(C(F)(F)F)C(F)(F)F)c3n2)cc1S(C)(=O)=O [Example 151, 4-((4-(1,1,1,3,3,3-hexafluoropropan-2-ylamino)-6-(4-methoxy-3-(methylsulfonyl)phenyl)pyrido[3,2-d]pyrimidin-2-ylamino)methyl)benzene-sulfonamide] | < 100 nM | 1000 to 10000 nM | –
CCc1cc(S(N)(=O)=O)ccc1CNc1nc(NC2(C(F)(F)F)CC2)c2nc(-c3ccc(F)cc3)ccc2n1 [Example 68, 3-ethyl-4-((6-(4-fluorophenyl)-4-(1-(trifluoromethyl)cyclo-propylamino)pyrido[3,2-d]pyrimidin-2-ylamino)methyl) benzenesulfonamide] | 250 to 2000 nM | 1000 to 10000 nM | –
Cc1nc(C)n(-c2ccc(CNc3nc(OC4(C)CC4)c4nc(-c5cccc(S(C)(=O)=O)c5)ccc4n3)cc2)n1 [Example 203, N-(4-(3,5-dimethyl-1H-1,2,4-triazol-1-yl)benzyl)-4-(1-methylcyclopropoxy)-6-(3-(methylsulfonyl)phenyl)pyrido [3,2-d]pyrimidin-2-amine] | < 100 nM | > 10000 nM | –
CCOc1ccc(-c2ccc3nc(NCc4ccc(-n5cncn5)cc4)nc(NCC(F)(F)F)c3n2)cn1 [Example 229, N^2-(4-(1H-1,2,4-triazol-1-yl)benzyl)-6-(6-ethoxypyridin-3-yl)-N^4-(2,2,2-trifluoroethyl) pyrido[3,2-d]pyrimidine-2,4-diamine] | < 100 nM | > 10000 nM | –
NS(=O)(=O)c1cc(CNc2nc(NC3(C(F)(F)F)CC3)c3nc(-c4ccc(F)cc4)ccc3n2)cc(C(F)(F)F)c1 [Example 26, 3-{[6-(4-fluorophenyl)-4-(1-trifluoromethyl-cyclopropylamino)-pyrido[3,2-d]pyrimidin-2-ylamino]-methyl}-5-trifluoromethyl-benzenesulfonamide] | 100 to 250 nM | > 10000 nM | –
CS(=O)(=O)c1cccc(-c2ccc3nc(NCc4ccc(S(N)(=O)=O)cc4)nc(NCC(F)(F)F)c3n2)c1 [Example 15, 4-{[6-(3-Methanesulfonyl-phenyl)-4-(2,2,2-trifluoro-ethylamino)-pyrido[3,2-d]pyrimidin-2-ylamino]-methyl}-benzenesulfonamide] | < 100 nM | – | > 25000 nM
